Here are results for 3 molecules from US20220241228A1, “Treatment of cholangiopathies” (CymaBay Therapeutics, Inc., priority 2021, published 2022).

Where two headings read alike, the source gives them in different places.

Series [1] has as its system PBC patients. As to conditions: cited from earlier work.
The subject of series [2] is PBC patients. As to conditions: 12-month trial, cited from earlier work.
Series [3] relates to patients with primary biliary cholangitis. The note with it: over a 52-week period; cited from earlier work.
In the next series the test system is subjects with PSC. Kind of series: Randomized placebo-controlled 24-week trial in primary sclerosing cholangitis (Example 2). In kind it is in vivo, human. As to conditions: 5, 10, or 20 mg/day orally once/day for 24 weeks. As for the experimental part:
Trial subjects are adult, male or female, with a diagnosis of PSC by at least two of the following three criteria: (a) historical evidence of an elevated AP >ULN from any prior laboratory result, (b) liver biopsy consistent with PSC, and (c) abnormal cholangiography consistent with PSC as measured by MRCP, ERCP, or percutaneous transhepatic cholangiography; on a stable and recommended dose of UDCA ≤20 mg/Kg/day for the past six months or at least twelve weeks off UDCA treatment; and intolerant of, or having an inadequate response to, obeticholic acid and/or a fibrate. Other criteria include ALP ≥1.5×ULN, TBIL ≤2×ULN, ALT and AST both ≤5×ULN, eGFR >60 mL/min/1.73 m^2, platelets ≥140×10^3/μL, INR ≤1.3 (in the absence of warfarin or other anticoagulant therapy), and albumin ≥3.5 g/dL. Exclusion criteria include clinically significant acute or chronic liver disease of an etiology other than PSC, a diagnosis of overlapping autoimmune hepatitis (AIH) and PSC, secondary or IgG4 related sclerosing cholangitis, small duct PSC, presence of a cholangiocarcinoma on cholangiography or MRI, bile duct stenting, history, evidence, or high suspicion of cholangiocarcinoma or other hepatobiliary malignancy, presumptive or diagnosed acute cholangitis within twelve weeks, and evidence of compensated or decompensated cirrhosis. […]

Another series has as its target T1, PPARα (Homo sapiens, UniProt Q07869).
T1 sequence (Q07869 1-468): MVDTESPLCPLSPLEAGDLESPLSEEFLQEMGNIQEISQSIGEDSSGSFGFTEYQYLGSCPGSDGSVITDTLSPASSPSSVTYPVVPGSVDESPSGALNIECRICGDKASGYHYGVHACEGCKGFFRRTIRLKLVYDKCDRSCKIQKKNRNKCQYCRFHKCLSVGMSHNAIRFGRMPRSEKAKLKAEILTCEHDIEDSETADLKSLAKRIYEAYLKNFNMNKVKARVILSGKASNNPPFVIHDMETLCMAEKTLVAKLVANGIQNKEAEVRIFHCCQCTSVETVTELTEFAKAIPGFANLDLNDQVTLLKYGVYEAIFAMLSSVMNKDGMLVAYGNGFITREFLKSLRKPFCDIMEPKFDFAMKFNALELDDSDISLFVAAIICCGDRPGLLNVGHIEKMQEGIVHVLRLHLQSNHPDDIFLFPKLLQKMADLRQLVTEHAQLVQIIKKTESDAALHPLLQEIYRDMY
Nature of the series: Specificity of seladelpar compared with PPARα. As to conditions: PPARδ versus PPARα. In kind it is biochemical. The text has this: It is specific (>600-fold and >2500-fold compared with PPARα and PPARγ receptors). PPARδ activation stimulates fatty acid oxidation and utilization, improves plasma lipid and lipoprotein metabolism, glucose utilization, and mitochondrial respiration, and preserves stem cell homeostasis.

In series [4] the test system is Subjects with primary biliary cholangitis. Kind of series: Pooled open-label Phase 2 and placebo-controlled Phase 3 studies of seladelpar in PBC subjects intolerant of, or with inadequate response to, obeticholic acid and/or a fibrate. In kind it is in vivo, human. The note with it: for Composite endpoint met / ALP ≤ ULN / Mean change in ALT / Mean change in TBIL / Mean change in ALP: three months; for Composite endpoint met: ALP <1.67×ULN, >15% decrease in ALP, and TBIL ULN; for Mean change in ALP: from baseline. The source says: The trial subjects were adult, male or female, with a diagnosis of PBC by at least two of the following three criteria: (a) a history of ALP above the upper limit of normal (ULN) for at least six months, (b) positive anti-mitochondrial antibody titers > 1/40 on immunofluorescence or M2 positive by enzyme linked immunosorbent assay or positive PBC-specific antinuclear antibodies, and (c) documented liver biopsy result consistent with PBC, on a stable and recommended dose of UDCA for the past twelve months or UDCA intolerant, and ALP ≥1.67×ULN. Exclusion criteria included AST or ALT ≥3×ULN, TBIL ≥2×ULN, autoimmune hepatitis or a history of chronic viral hepatitis, PSC, the current use of fibrates or simvastatin, the use of colchicine, methotrexate, azathioprine, or systemic steroids in the previous two months, the use of an experimental treatment for PBC, and the use of an experimental or unapproved immunosuppressant. […] Efficacy was assessed on subjects treated for three months. The composite endpoint was the responder rate for subjects achieving ALP <1.67×ULN, >15% decrease in ALP, and TBIL ULN. Additional endpoints were ALP ULN, ALP change from baseline, and other markers of liver function. Safety was assessed over one year. […] Fifty-one subjects were treated for 3 months; and 37 were assessed; with results in the table below: A safety analysis was performed on all 71 subjects.

[5] abbreviates: PBC subjects intolerant of, or inadequate response to, obeticholic acid and/or a fibrate.

On to `C[C@H](CCC(=O)O)[C@H]1CC[C@H]2[C@@H]3[C@@H](O)C[C@@H]4C[C@H](O)CC[C@]4(C)[C@H]3CC[C@]12C` [UDCA, ursodeoxycholic acid], for which the “patients reported to be intolerant to treatment” value in the series on PBC patients [1] is reported as “about 5%”.
In the case of `CC[C@H]1[C@@H](O)[C@@H]2[C@H](CC[C@]3(C)[C@@H]([C@H](C)CCC(=O)O)CC[C@@H]23)[C@@]2(C)CC[C@@H](O)C[C@@H]12` [OCA, 6α-ethylchenodeoxycholic acid], the “patients with severe pruritus” value is listed as 23% with PBC patients [2] (OCALIVA 10 mg arm) and 19% in the series with PBC patients [2] (OCALIVA titration arm).
In the case of `CCO[C@H](COc1ccc(C(F)(F)F)cc1)CSc1ccc(OCC(=O)O)c(C)c1` [Seladelpar, [4-({(2R)-2-ethoxy-3-[4-(trifluoromethyl)phenoxy]propyl}sulfanyl)-2-methylphenoxy]acetic acid], in series [3], the “ALP and GGT” value is “statistically significant decreases”; the ALT entry is “statistically significant decrease”; the total bilirubin levels entry is “stable”. In addition, in the series on subjects with PSC, the ALP entry is reported as “dose-related reductions” and the PSC-related symptoms result is given as “improvements”. Further, on PPARα, the “specificity compared with PPARα” value is given as > 600 fold. In addition, in series [4] (5 mg/day orally once/day), the “Pruritus adverse events experienced” value turned out to be 15%, the “ALP ≤ ULN” value is listed as 0, the “Mean change in ALT” value was −13% and the “Mean change in TBIL” value is given as −3%. The “Mean change in ALP” value in series [4] (5 mg/day orally once/day) was −31%. Moreover, the Composite endpoint met in series [4] (5 mg/day orally once/day as L-lysine dihydrate salt) amounted to 40%. In series [4] (5 mg/day, safety analysis on all 71 subjects, all unrelated to seladelpar), the “subjects who experienced a serious adverse event” value is listed as “three”. Moreover, the “subjects who discontinued treatment due to adverse events” value in series [4] (5 mg/day, safety analysis on all 71 subjects, one ALT/AST elevation, one gastroesophageal reflux disease) is “two”. In series [4] (10 mg/day orally once/day), the “Pruritus adverse events experienced” value is given as 7%, the “ALP ≤ ULN” value was found to be 21%, the “Mean change in ALT” value is recorded as −21% and the “Mean change in TBIL” value is −9%. In addition, the “Mean change in ALP” value in series [4] (10 mg/day orally once/day) is −45%. Further, the Composite endpoint met in series [4] (10 mg/day orally once/day as L-lysine dihydrate salt) is on record as 79%. Moreover, in series [4] (setting [5]), the “biochemical markers of cholestasis” value was “meaningful improvement”; the safety and tolerability result is on record as “safe, well tolerated”.
